Laboratory results taken from the CheMixHub ionic liquid set.

Assay: xn = mol fraction of the nth substance listed
Conditions: 101 kPa

CSCC[C@H](N)C(=O)O + CCCCCCCCCCCC[N+](C)(C)C.[Br-] + O
viscosity [mPa·s]
Conditions | 293.15 K | 298.15 K | 303.15 K | 308.15 K | 313.15 K
x1 = 0.0001801, x2 = 0.0001083 | 1.019 | 0.904 | 0.811 | 0.746 | 0.677
x1 = 0.0001801, x2 = 0.0001624 | 1.024 | 0.907 | 0.814 | 0.749 | 0.68
x1 = 0.0001801, x2 = 0.0002165 | 1.03 | 0.909 | 0.816 | 0.75 | 0.681
x1 = 0.0001801, x2 = 0.0002706 | 1.034 | 0.912 | 0.818 | 0.752 | 0.683
x1 = 0.0001801, x2 = 0.0003247 | 1.04 | 0.915 | 0.82 | 0.754 | 0.685
x1 = 0.0001801, x2 = 0.0003788 | 1.044 | 0.919 | 0.823 | 0.756 | 0.687
x1 = 0.0001801, x2 = 0.0004329 | 1.046 | 0.922 | 0.829 | 0.758 | 0.689
x1 = 0.0001801, x2 = 0.0004869 | 1.049 | 0.927 | 0.834 | 0.76 | 0.691
x1 = 0.0001801, x2 = 0.000541 | 1.052 | 0.931 | 0.84 | 0.762 | 0.694
x1 = 0.0001802, x2 = 5.413e-05 | 1.013 | 0.9 | 0.81 | 0.745 | 0.672
x1 = 0.0008997, x2 = 0.0005439 | 1.07 | 0.912 | 0.836 | 0.761 | 0.683
x1 = 0.0008998, x2 = 0.0003808 | 1.061 | 0.906 | 0.819 | 0.751 | 0.672
x1 = 0.0008998, x2 = 0.0004351 | 1.063 | 0.908 | 0.822 | 0.753 | 0.675
x1 = 0.0008998, x2 = 0.0004895 | 1.066 | 0.91 | 0.831 | 0.756 | 0.679
x1 = 0.0008999, x2 = 0.000272 | 1.057 | 0.902 | 0.812 | 0.746 | 0.668
x1 = 0.0008999, x2 = 0.0003264 | 1.059 | 0.904 | 0.815 | 0.748 | 0.67
x1 = 0.0009, x2 = 0.0001632 | 1.053 | 0.899 | 0.809 | 0.74 | 0.663
x1 = 0.0009, x2 = 0.0002176 | 1.054 | 0.901 | 0.81 | 0.743 | 0.666
x1 = 0.0009001, x2 = 5.441e-05 | 1.048 | 0.894 | 0.805 | 0.732 | 0.658
x1 = 0.0009001, x2 = 0.0001088 | 1.051 | 0.896 | 0.807 | 0.735 | 0.66
x1 = 0.001798, x2 = 0.0001643 | 1.062 | 0.911 | 0.822 | 0.745 | 0.675
x1 = 0.001798, x2 = 0.000219 | 1.064 | 0.913 | 0.824 | 0.747 | 0.676
x1 = 0.001798, x2 = 0.0002738 | 1.066 | 0.916 | 0.827 | 0.749 | 0.678
x1 = 0.001798, x2 = 0.0003285 | 1.069 | 0.919 | 0.83 | 0.751 | 0.681
x1 = 0.001798, x2 = 0.0003832 | 1.073 | 0.921 | 0.832 | 0.756 | 0.683
x1 = 0.001798, x2 = 0.0004379 | 1.076 | 0.927 | 0.836 | 0.76 | 0.686
x1 = 0.001798, x2 = 0.0004927 | 1.079 | 0.932 | 0.84 | 0.764 | 0.692
x1 = 0.001798, x2 = 0.0005474 | 1.083 | 0.937 | 0.844 | 0.77 | 0.698
x1 = 0.001799, x2 = 5.476e-05 | 1.059 | 0.906 | 0.818 | 0.741 | 0.671
x1 = 0.001799, x2 = 0.0001095 | 1.06 | 0.909 | 0.82 | 0.743 | 0.673
